Laboratory results published in US20260286370A1, “METHODS FOR RAPID AGROBACTERIUM-MEDIATED SUNFLOWER STABLE TRANSFORMATION” (SYNGENTA CROP PROTECTION AG, priority 2023, published 2026).

Tests used:
Assay type in all cases: in vivo, Helianthus annuus
[1] = test system: sunflower explants; experiment: Transformation frequency by selection system (aadA or ALS selectable marker); settings: substance used as selection agent (aadA marker for spectinomycin, ALS marker for bensulfuron-methyl)
Excerpt: As the Examples indicate, multiple transgenic-shoot structures were induced from infected explant tissues. Then the explants were shortly selected on selection media with selection agent (7-14 days, Spectinomycin as selection agent) and transplanted into soil to allow shoot and root development under controlled conditions (in growth chamber). From multiple experiments, transgenic events were successfully generated with aadA or ALS as selectable markers (spectinomycin and bensulfuron-methyl as selection agents respectively). The transformation frequency (TF) is 8.2% for spectinomycin selection, and 3.6% for bensulfuron-methyl selection system.

[2] = test system: sunflower explants from 1-day imbibed seeds; experiment: Transformation efficiency with different concentration of TDZ in infection medium (Protocol V1); settings: for # of TaqMan Positive Events / TF: variety F75400, vector 24545
Protocol: Agrobacterium from storage at −80° C. were streaked to YP (Yeast Peptone) medium with 100 mg/L spectinomycin and 50 mg/L kanamycin at least 3 days before infection. They were re-streaked to a new YP medium plate with some concentrations of spectinomycin and kanamycin 1 day before infection. The Agrobacterium were then collected and re-suspended in infection liquid medium (containing MS basal salts and B5 vitamins, sucrose 20 g/L, glucose 10 g/L, MES, 4 g/L, zeatin riboside 2 mg/L, 3-10 mg/L TDZ, 80 mg/L acetosyringone (AS), 150 mg/L dithiothreitol (DTT), pH=5.5). The concentration of the Agrobacterium was adjusted until OD660=0.6.
One cotyledon of the split germinated seeds was removed with a scalpel to expose the shoot apex with its two primary leaves. The two primary leaves were completely removed to expose the apical meristem and the apical region was gently wounded with the sharp end of a scalpel. The resultant explants were then placed in an Agrobacterium suspension and add 1/1000 10% F68; the suspension was then placed under vacuum at 800-900-mbar for 5-30 min followed by sonication at 45 kHz for 30-60s with gentle shaking. The explants were inoculated for 2-3 hours with the Agrobacterium with 50-80 rpm shaking.
After inoculation in (3), the Agrobacterium suspension was removed, and the explants were then placed onto a piece of filter paper in a petri dish which prewetted by 0.5 ml co-cultivation media (MS basal salts and vitamins, MS iron, zeatin 1 mg/L, sucrose 10 g/L, glucose 5 g/L, MES 2 g/L, acetosyringone 20 mg/L, silver nitrate 0.5 mg/L) with the adaxial side up. One side of the filter paper was covered, and the petri dish was sealed with parafilm. Approximately 10~20 explants were placed per petri dish. The explant and Agrobacterium were co-cultured for 4 days in low-illumination condition: PAR (photosynthetically active radiation) 40 μmol m−2 s−1 with 16/8 light/dark condition. The plate containing explants was covered with a steel tray in an incubator (PERVICAL® Scientific Chambers, Perry, IA). These conditions were chosen to increase infection and prevent embryo deterioration. The explants were then co-cultured at 22° C. in the dark for 3-6 days in growth chamber.
After co-culture, the explants were transferred onto SFR1 medium for shoot regeneration (Gamborg B5 basal salts and B5 vitamins, MS Iron 200×, sucrose 20 g/L, MES 1 g/L, timentin 150 mg/L, carbenicillin 150 mg/L, agar 7.5 g/L, lipoic acid-50 mM, BAP 1 mg/L). The SFR1 medium also contained a selection agent (i.e., spectinomycin 50-150 mg/L). The explants were allowed to culture on SFR1 media in the dark at 25° C. for 3-6 days, and then grown under light (16/8 light/dark) at 25° C. for 9-14 days. FIGS. 6A-D show formation of the primary shoots with GFP expression.
Different concentrations of TDZ in the infection medium were tested to assess if TDZ concentration impacts transformation (Experiment alias: SF-52-SP-24545, SF-66-SP-24545, SF-81-SP-24545; variety: F75400). The process of transformation with explants from 1-day imbibed seeds was as described above. TDZ was added in the infection medium during the infection process for 2-4 hours. A TDZ concentration of 3-10 mg/L was used.

[3] = test system: sunflower explants; experiment: Transformation efficiency with different cytokinin in germination medium (Protocol V2); settings: variety F75400; for No. resistant shoot: hormone in germination medium: TDZ 4 mg/L (68 explants), BAP 5 mg/L (71 explants); for # of Resistant plants with GFP / Rate of resistant plants with GFP (%) / Resistant shoot rate: hormone in germination medium: TDZ 4 mg/L, BAP 5 mg/L
Excerpt: Adding different cytokinin into germination medium can improve shoot induction rate and TF. The resistant plantlets were generated with normal shoots and roots, which was further confirmed by visualizing green fluorescent protein expression (GFP). (Experiment alias: SF-52-SP-24545, SF-66-SP-24545, SF-81-SP-24545; variety: F75400).

[4] = test system: sunflower cotyledon explants; experiment: Shoot induction rate of cotyledon explants with different plant hormone (conventional process); settings: conventional in vitro process
Protocol: The most efficient regeneration and transformation system reported using cotyledon as explants was evaluated.

[5] = test system: sunflower explants; experiment: Resistant frequencies with different concentration of spectinomycin in selection medium (Protocol V2); settings: F75400
Protocol: Transformed sunflower explants was transferred onto regeneration media by inserting cotyledon with meristem region into solid medium with a selection agent. Hypocotyl was left untouching the medium. The hypocotyl was covered with sterilized matrix and put the jar in 22° C., 16/8 h light/dark. The regeneration step lasted for 7-14 days. Specifically, after co-culture, the mature seeds were placed on regeneration medium as follows: cotyledon/meristem region was inserted into solid medium with a selection agent (100 mg/L spectinomycin), the hypocotyl was left upside (the whole seeds were upside down); the container was covered with sterilized matrix (soil mixture) and placed in growth chamber for inducing shooting and rooting simultaneously under short time selection (7-14 days).
Selection medium with spectinomycin 100-800 mg/L was tested. The resistant plantlets are generated with normal shoots and roots, further confirmed by visualizing GFP. […] (Experiment alias: SF-23-SP-24545; variety: F75400).

[6] = TDZ 3 mg/L in infection medium, 65 explants
[7] = TDZ 4 mg/L in infection medium, 49 explants
[8] = TDZ 8 mg/L in infection medium, 42 explants
[9] = TDZ 10 mg/L in infection medium, 37 explants
[10] = spectinomycin 100 mg/L in selection medium, SF23A, 89 explants
[11] = spectinomycin 200 mg/L in selection medium, SF23B, 67 explants
[12] = spectinomycin 300 mg/L in selection medium, SF23C, 61 explants
[13] = spectinomycin 500 mg/L in selection medium, SF23D, 68 explants
[14] = spectinomycin 800 mg/L in selection medium, SF23E, 70 explants

Compound: COC(=O)c1ccccc1CS(=O)(=O)NC(=O)Nc1nc(OC)cc(OC)n1 [bensulfuron-methyl]
- transformation frequency (TF) [1]: 3.6%

Compound: O=C(Nc1ccccc1)Nc1cnns1 [TDZ, 1-phenyl-3-(1,2,3-thiadiazol-5-yl)urea]
- # of TaqMan Positive Events [2, 6]: 1
- TF [2, 6]: 1.5%
- # of TaqMan Positive Events [2, 7]: 4
- TF [2, 7]: 8.2%
- # of TaqMan Positive Events [2, 8]: 3
- TF [2, 8]: 7.1%
- # of TaqMan Positive Events [2, 9]: 1
- TF [2, 9]: 2.7%
- Effect on shoot induction rate and transformation efficiency ([2]; TDZ 3-10 mg/L in infection medium for 2-4 hours): significantly improve shoot induction rate and transformation efficiency
- No. resistant shoot [3]: 7
- # of Resistant plants with GFP [3]: 5
- Rate of resistant plants with GFP (%) [3]: 7%
- Resistant shoot rate [3]: 10%

Compound: c1ccc(CNc2ncnc3nc[nH]c23)cc1 [BAP, 6-benzylaminopurine]
- Shoot induction rate (%) [4]: 2%
- No. resistant shoot [3]: 6
- # of Resistant plants with GFP [3]: 5
- Rate of resistant plants with GFP (%) [3]: 7%
- Resistant shoot rate [3]: 8%

Compound: CN[C@@H]1[C@H](O)[C@H](NC)[C@H]2O[C@@]3(O)C(=O)C[C@@H](C)O[C@H]3O[C@@H]2[C@H]1O [Spectinomycin, spectinomycin]
- Generation of resistant shoots ([5]; all spectinomycin concentrations from 100 mg/L to 800 mg/L): generated resistant shoots
- # of Resistant plants with GFP [5, 10]: 10
- Rate of resistant plants with GFP (%) [5, 10]: 11%
- Rooting rate (%) [5, 10]: 66%
- Shooting Rate (%) [5, 10]: 40%
- # of Resistant plants with GFP [5, 11]: 6
- Rate of resistant plants with GFP (%) [5, 11]: 9%
- Rooting rate (%) [5, 11]: 36%
- Shooting Rate (%) [5, 11]: 18%
- # of Resistant plants with GFP [5, 12]: 2
- Rate of resistant plants with GFP (%) [5, 12]: 3%
- Rooting rate (%) [5, 12]: 30%
- Shooting Rate (%) [5, 12]: 16%
- # of Resistant plants with GFP [5, 13]: 2
- Rate of resistant plants with GFP (%) [5, 13]: 3%
- Rooting rate (%) [5, 13]: 18%
- Shooting Rate (%) [5, 13]: 10%
- # of Resistant plants with GFP [5, 14]: 1
- Rate of resistant plants with GFP (%) [5, 14]: 1%
- Rooting rate (%) [5, 14]: 9%
- Shooting Rate (%) [5, 14]: 9%
- transformation frequency (TF) [1]: 8.2%
